Assay results reported in patent US12643913B2, “Mcl-1 inhibitor formulations” (AMGEN INC., priority 2020, dated 2026).
“Also recorded” adds a separate entry of the source. Read-outs that look alike come from different tables or passages of the source.

Columns and labels:
[1] = Moisture sorption profile (DVS); assay type: physicochemical; conditions: by 95% RH; listed as crystalline hydrate form of AMG 397
Protocol: Moisture Sorption: Moisture sorption data was collected using a Surface Measurement Systems DVSAdvantage instrument. Equilibrium criteria were set at ±0.001% weight change in 10 minutes with a maximum equilibrium time of 380 minutes.
Moisture Sorption: Moisture sorption data was collected using a Surface Measurement Systems DVSAdvantage instrument. Equilibrium criteria were set at ±0.001% weight change in 10 minutes with a maximum equilibrium time of 360 minutes.

[2] = Pharmacokinetics after oral gavage to male beagle dogs with different pre-treatments (Amgen study 150528); assay type: in vivo; conditions: 3 mg/kg PO; for Decrease in exposure / bioavailability with change of stomach pH: beagle dogs; for half-life: read-out: T½ (converted); for bioavailability: compared to Phase 1 of the same form, read-out: Relative % F
Protocol: The pharmacokinetics of AMG 397 were assessed following oral administration to male beagle dogs as either a suspension of the crystalline hydrate form of AMG 397 or an amorphous suspension in 2% HPMC, 0.01% Tween 80. The full protocol is described in Amgen study number 150528. The goal of this study was to determine if the amorphous material would lead to increases in bioavailability and if variability in dosing could be reduced. In addition, oncology patients could be receiving acid-reducing agents as co-medication, so it is important to determine if exposure is reduced with elevated stomach pH and if an amorphous formulation of AMG 397 could overcome the drug-drug interaction (DDI). For the studies below, Form 1 is the crystalline hydrate form of AMG 397 and amorphous is the amorphous form of AMG 397.
(§1) Briefly, during each phase five male beagle dogs were assigned to each group of the study. All animals were fasted for at least eight hours prior to dosing and through the first four hours of blood sample collection for each phase. Food was returned within 30 minutes following collection of the last blood sample at the four-hour collection interval. Each animal in Phase 1, received a single oral (PO) gavage dose of the appropriate test article formulation as outlined in the study design Table 6. Oral gavage dosing formulations were continuously stirred throughout dosing. The gavage tube was rinsed with approximately 10 mL of tap water following dosing (prior to removal of the gavage tube). Following each study phase a 7-day washout period was allowed prior to the dosing of the next phase. The same five dogs were assigned to either group 1 or group 2 formulations for the duration of the study.
(§2) Test Article Administration: A total of 10 male beagle dogs were initially assigned to study. All animals were fasted for at least eight hours prior to dosing and through the first four hours of blood sample collection for each phase, where applicable (food will be returned within 30 minutes following collection of the last blood sample at the four hour collection interval, where applicable). Total fasting time […] 24 hours.
(§3) Each animal in Phase 1, Groups 1 and 2 received a single oral (PO) gavage dose of the appropriate test article formulation as outlined in the following study design table. Oral gavage dosing formulations was continuously stirred throughout dosing. The gavage tube was rinsed with approximately 10 mL of tap water following dosing (prior to removal of the gavage tube). No pre-treatment will be required for Phase 1.
as §3, with “After a 7-day washout period, each” for “Each”, “2,” for “1,”, “land” for “1 and”, “were” for “was”, “Two hours prior to dosing, each animal received two 20 mg (40 mg total) oral tablets of famotidine followed by a 10 mL dose of deionized water.” for “No pre-treatment will be required for Phase 1.”
After another 7-day washout period, each animal in Phase 3, Groups land 2 received a single oral (PO) gavage dose of the appropriate test article formulation as outlined in the following study design table. Oral gavage dosing formulations were continuously stirred throughout dosing. The gavage tube was rinsed with approximately 10 mL of tap water following dosing (prior to removal of the gavage tube). Thirty minutes prior to dosing, each animal received an intramuscular dose of pentagastrin in phosphate buffered saline at a dose level of 0.006 mg/kg and a dose volume of 0.05 mL/kg.
After a final 7-day washout period, each animal in Phase 4, Groups 1 and 2 received a single oral (PO) gavage dose of the appropriate test article formulation as outlined in the following study design table. Oral gavage dosing formulations were continuously stirred throughout dosing. […]

[3] = Clinical observations in the beagle dog PK study; assay type: in vivo, male beagle dogs; conditions: 3 mg/kg PO, individual dogs, listed as AMG 397 Form 1
Protocol: as §1, §2
Different pre-treatments were assigned for each phase of the study to mimic several scenarios: • 1. No pre-treatment was administered for Phase 1 as it served as a control. • 2. During Phase 2, at 1 hour 54 minutes to 1 hour 58 minutes prior to dose administration, all animals were pretreated with two 20 mg (40 mg total) oral tablets of famotidine followed by a 10 mL dose of deionized water. […] This was used to determine the role of stomach pH on exposure. • 3. During Phases 3 and 4, at 30 to 38 minutes prior to dose administration, all animals were pretreated with a single intramuscular dose of pentagastrin in phosphate buffered saline, pH 7.4, at a dose level of 0.006 mg/kg and a dose volume of 0.05 mL/kg. The pentagastrin dose was used to ensure that the dogs stomach pH was normalized to pH ˜2.0 as it is known that the dogs stomach pH is often higher than that of humans under resting conditions. • 4. In addition, […], at 1 hour 3 minutes to 1 hour 6 minutes prior to dose administration and 4 hours 10 minutes to 4 hours 11 minutes following dose by oral gavage at a dose level of 3 mg/kg and a dose volume of 4 mL/kg. This final phase was used to study if P-gp played a role in absorption.

[4] = Phase 1, no pre-treatment, male beagle dogs
[5] = Phase 2, famotidine pre-treatment (stomach pH ~6.5), male beagle dogs
[6] = male, beagle, dog, plasma, po, 3 mg/kg, Phase 3, pentagastrin pre-treatment (stomach pH ~2.0), male beagle dogs
[7] = male, beagle, dog, plasma, po, 3 mg/kg, Phase 4, pentagastrin pre-treatment + P-gp inhibitor GF120918, male beagle dogs

Moisture sorption weight gain [1]: 3.3%
AUCt [2, 4]: 5.5 µM·h
Cl/F [2, 4]: 41.7 mL/min/kg
Cmax [2, 4]: 230 nM
Tmax [2, 4]: 12.4 h
AUCt [2, 5]: 6.3 µM·h
Cl/F [2, 5]: 43.3 mL/min/kg
Cmax [2, 5]: 260 nM
Cl/F ([2]; Phase 3, pentagastrin pre-treatment (stomach pH ~2.0), male beagle dogs): 13.8 mL/min/kg
Decrease in exposure / bioavailability with change of stomach pH ([2]; listed as crystalline hydrate form of AMG 397, 3 mg/kg): ≤ 2 fold
Decrease in exposure / bioavailability with change of stomach pH ([2]; listed as crystalline hydrate form, 3 mg/kg): 2 fold
half-life ([2]; male, beagle, dog, plasma, po, 3 mg/kg, Phase 1, no pre-treatment, male beagle dogs): 17.3 h
bioavailability ([2]; male, beagle, dog, plasma, po, 3 mg/kg, Phase 1, no pre-treatment): 100%
Tmax ([2]; male, beagle, dog, plasma, po, 3 mg/kg, Phase 2, famotidine pre-treatment (stomach pH ~6.5), male beagle dogs, read-out: Tmax): 12.8 h
half-life ([2]; male, beagle, dog, plasma, po, 3 mg/kg, Phase 2, famotidine pre-treatment (stomach pH ~6.5), male beagle dogs): 16.5 h
bioavailability ([2]; male, beagle, dog, plasma, po, 3 mg/kg, Phase 2, famotidine pre-treatment): 113%
AUC(0-t) [2, 6]: 11.3 µM·h
Cmax [2, 6]: 450 nM
Tmax ([2]; male, beagle, dog, plasma, po, 3 mg/kg, Phase 3, pentagastrin pre-treatment (stomach pH ~2.0), male beagle dogs, read-out: Tmax): 13.2 h
half-life [2, 6]: 23.3 h
AUC(0-t) [2, 7]: 16.3 µM·h
CL/F [2, 7]: 5.17 mL/min/kg
Cmax [2, 7]: 600 nM
Tmax ([2]; male, beagle, dog, plasma, po, 3 mg/kg, Phase 4, pentagastrin pre-treatment + P-gp inhibitor GF120918, male beagle dogs, read-out: Tmax): 11.6 h
half-life [2, 7]: 25 h
Positive clinical findings (observation) ([3]; Phase 2 (Days 8 to 14), famotidine pre-treatment): Limb function impaired
Positive clinical findings (observation) ([3]; Phase 4 (Days 22 to 24), pentagastrin pre-treatment and inhibitor GF120918 pre- and post-treatment): Large amount of white,
Structure (SMILES): CO[C@]1(CN2CCN3CCCC[C@@H]3C2)/C=C/C[C@H](C)[C@@H](C)S(=O)(=O)NC(=O)c2ccc3c(c2)N(C[C@@H]2CC[C@H]21)C[C@@]1(CCCc2cc(Cl)ccc21)CO3 [AMG 397 Crystalline Hydrate]
Positive clinical findings (observation) ([3]; Phase 3 (Days 15 to 21), pentagastrin pre-treatment): White, frothy vomitus; also recorded: Limb function impaired; also recorded: Wet hair on entire body; also recorded: Inappetence
